Entries after “also recorded” stand apart in the source; their conditions may differ. Each block holds one compound with its values, some of them ahead of it.
Legend:
[1] = tested on: cells TK6/p53R2×3-Luc2P/Rluc; assay: Mutagenicity test with internal control, cells TK6/p53R2×3-Luc2P/Rluc; type: cell-based, human; settings: 0.1-20 μg/mL; 6 hours; FIG. 11
Method: Next, in accordance with the method of Example 8, cells stably expressing Luc2P and Rluc were acquired and named TK6/p53R2×3-Luc2P/Rluc.
Next, the above-mentioned two kinds of cells were brought into contact with 5-aza-2′-deoxycytidine (5-aza-dC).
After the removal of the medium, the expression amount of the Luc2P gene was determined as a relative value to the expression amount of the Rluc gene. Specifically, through the use of a luminometer LB96P with an enzyme substrate automatic injector (manufactured by Berthold), first, a substrate solution for firefly luciferase measurement (manufactured by Promega) was dispensed at 30 μL/well to measure the expression amount of the Luc2P gene. After that, a substrate solution for Sea pansy luciferase measurement (manufactured by Promega) was further dispensed at 30 μL/well to determine the expression amount of the Rluc gene.

[2] = tested on: TK6 cells transfected with pGL4-p53R2×3-SV40-Luc2; assay: Mutagenicity test: luciferase reporter, transient pGL4-p53R2×3-SV40-Luc2 transformant; type: cell-based, human; settings: 0.003-0.7 μg/mL
Method: Wild-type p53 of a human lymphoblast cell line TK6 cell was confirmed to be normal by DNA sequencing (ABI Prism BigDye Terminater v3.0; manufactured by Applied Biosystems) using primers for sequencing 5′-ACACGCTTCCCTGGATTG-3′ (SEQ ID NO: 17) and 5′-[…]-3′ (SEQ ID NO: 18).
It should be noted that the amount of pGL4-p53R2×3-SV40-Luc2 for transfection was adjusted to 0.25 ng/well.
Next, after the removal of the medium, a cell lysis solution (manufactured by Promega) was added at 25 μl/well, and the whole was left to stand at room temperature for 15 minutes. The plate was set in a luminometer LB96P with an enzyme substrate automatic injector (manufactured by Berthold), and a substrate solution (manufactured by Promega) was automatically dispensed at 30 μL/well to measure luciferase activities.
Wild-type p53 of a human lymphoblast cell line TK6 was confirmed to be normal in the same manner as described above. […] It should be noted that the amount of pGL4-p53R2×3-SV40-Luc2 for transfection was adjusted to 0.25 ng/well.

[3] = tested on: TK6 cells transfected with PGV-p53R2×3-Luc; assay: Mutagenicity test: luciferase reporter, transient PGV-p53R2×3-Luc transformant; type: cell-based, human; settings: TK6, PGV-p53R2×3-Luc
Method: Next, the same operation as described above was performed to measure luciferase activities except that the plasmid PGV-p53R2×3-Luc prepared in Example 1 of JP 4243716 B2 was used in place of pGL4-p53R2×3-SV40-Luc2.
(§1) Transfection with plasmid PGV-p53R2×3-Luc, culture, and luciferase activity measurement were performed in the same manner as in Reference Example 1 described above except that the transformant was cultured for the following culture time: 16 hours in TK6 cells; 24 hours in MCF-7, HepG2, A549, HCT116, and HEK293; and 18 hours in NB1RGB.

[4] = tested on: MCF-7 cells transfected with pGL4-p53R2×3-SV40-Luc2; assay: Luciferase reporter, pGL4-p53R2×3-SV40-Luc2 transformant of MCF-7; type: cell-based, human; settings: MCF-7, pGL4-p53R2×3-SV40-Luc2; 8 hours after contact; FIG. 4
Source text: (§2) The obtained various transformants of the MCF-7 cells, the HepG2 cells, the A549 cells, the HCT116 cells, the HEK293 cells, and the NB1RGB cells were used to measure luciferase activities in the same manner as in the TK6 cells.

[5] = tested on: HepG2 cells transfected with pGL4-p53R2×3-SV40-Luc2; assay: Luciferase reporter, pGL4-p53R2×3-SV40-Luc2 transformant of HepG2; type: cell-based, human; settings: HepG2, pGL4-p53R2×3-SV40-Luc2; 8 hours after contact; FIG. 4
Source text: as §2

[6] = tested on: A549 cells transfected with pGL4-p53R2×3-SV40-Luc2; assay: Luciferase reporter, pGL4-p53R2×3-SV40-Luc2 transformant of A549; type: cell-based, human; settings: A549, pGL4-p53R2×3-SV40-Luc2; 8 hours after contact; FIG. 4
Source text: as §2

[7] = tested on: HCT116 cells transfected with pGL4-p53R2×3-SV40-Luc2; assay: Luciferase reporter, pGL4-p53R2×3-SV40-Luc2 transformant of HCT116; type: cell-based, human; settings: HCT116, pGL4-p53R2×3-SV40-Luc2; 8 hours after contact; FIG. 4
Source text: as §2

[8] = tested on: HEK293 cells transfected with pGL4-p53R2×3-SV40-Luc2; assay: Luciferase reporter, pGL4-p53R2×3-SV40-Luc2 transformant of HEK293; type: cell-based, human; settings: HEK293, pGL4-p53R2×3-SV40-Luc2; 8 hours after contact; FIG. 4
Source text: as §2

[9] = tested on: NB1RGB cells transfected with pGL4-p53R2×3-SV40-Luc2; assay: Luciferase reporter, pGL4-p53R2×3-SV40-Luc2 transformant of NB1RGB; type: cell-based, human; settings: 8 hours after contact, FIG. 4
Source text: as §2

[10] = tested on: MCF-7 cells transfected with PGV-p53R2×3-Luc; assay: Luciferase reporter, PGV-p53R2×3-Luc transformant of MCF-7; type: cell-based, human; settings: MCF-7, PGV-p53R2×3-Luc
Method: (§3) To the obtained various transformants of MCF-7, HepG2, A549, HCT116, HEK293, and NB1RGB, adriamycin dissolved in DMSO was added, followed by culture for 8 hours. After that, luciferase activities were measured in the same manner as in the TK6 cells.
as §1

[11] = tested on: HepG2 cells transfected with PGV-p53R2×3-Luc; assay: Luciferase reporter, PGV-p53R2×3-Luc transformant of HepG2; type: cell-based, human; settings: HepG2, PGV-p53R2×3-Luc
Method: as §3, §1

[12] = tested on: A549 cells transfected with PGV-p53R2×3-Luc; assay: Luciferase reporter, PGV-p53R2×3-Luc transformant of A549; type: cell-based, human; settings: A549, PGV-p53R2×3-Luc
Method: as §3, §1

[13] = tested on: HCT116 cells transfected with PGV-p53R2×3-Luc; assay: Luciferase reporter, PGV-p53R2×3-Luc transformant of HCT116; type: cell-based, human; settings: HCT116, PGV-p53R2×3-Luc
Method: as §3, §1

[14] = tested on: HEK293 cells transfected with PGV-p53R2×3-Luc; assay: Luciferase reporter, PGV-p53R2×3-Luc transformant of HEK293; type: cell-based, human; settings: HEK293, PGV-p53R2×3-Luc
Method: as §3, §1

[15] = tested on: NB1RGB cells transfected with PGV-p53R2×3-Luc; assay: Luciferase reporter, PGV-p53R2×3-Luc transformant of NB1RGB; type: cell-based, human
Method: as §3, §1

[16] = tested on: stable expression cells TK6/p53R2×3-Luc2P; assay: Mutagenicity test: luciferase reporter, stable expression cells TK6/p53R2×3-Luc2P

Structure (SMILES): Nc1ncn([C@H]2C[C@H](O)[C@@H](CO)O2)c(=O)n1 [5-aza-dC, 5-aza-2′-deoxycytidine]
- Firefly luciferase (Luc2P) activity not corrected with Rluc activity (w/o internal control) [1]: an increase in measured value due to an increase in concentration of 5-aza-dC
- Luc2P activity corrected with Rluc activity as an internal control (with internal control) [1]: no increase in measured value

- Luciferase activity (% of Solvent control) [4]: only slight luciferase activity
- Luciferase activity (% of Solvent control) [5]: only slight luciferase activity
- Luciferase activity (% of Solvent control) [6]: only slight luciferase activity
- Luciferase activity (% of Solvent control) [7]: only slight luciferase activity
- Luciferase activity (% of Solvent control) [8]: only slight luciferase activity
- Luciferase activity (% of Solvent control) [9]: only slight luciferase activity
- Luciferase activity (% of Solvent control) ([10]; culture 24 hours, FIG. 6): high luciferase activity
- Luciferase activity compared with the other cells ([10]; culture 24 hours, FIG. 6): higher luciferase activities
- Luciferase activity (% of Solvent control) ([11]; culture 24 hours, FIG. 6): high luciferase activity
- Luciferase activity compared with the other cells ([11]; culture 24 hours, FIG. 6): higher luciferase activities
- Luciferase activity (% of Solvent control) ([12]; culture 24 hours, FIG. 6): high luciferase activity
- Luciferase activity (% of Solvent control) ([13]; culture 24 hours, FIG. 6): high luciferase activity
- Luciferase activity (% of Solvent control) ([14]; culture 24 hours, FIG. 6): high luciferase activity
- Luciferase activity (% of Solvent control) ([15]; culture 18 hours, FIG. 6): high luciferase activity
Structure (SMILES): COc1cccc2c1C(=O)c1c(O)c3c(c(O)c1C2=O)C[C@@](O)(C(=O)CO)C[C@@H]3O[C@H]1C[C@H](N)[C@H](O)[C@H](C)O1 [adriamycin]
- Luciferase activity (% of Solvent control) ([2]; contact for 4 hours): such an increase in luciferase activity due to an increase in concentration of adriamycin as to be sufficient for performing a mutagenicity test
- Luciferase activity (% of Solvent control) ([2]; contact for 8 hours): very high luciferase activity
- Luciferase activity (% of Solvent control) ([2]; dependence on concentration, FIG. 3): an increase in luciferase activity due to an increase in concentration of adriamycin
- Luciferase activity (% of Solvent control) ([3]; 0.003-0.7 μg/mL, contact for 8 hours): very small luciferase activity; also recorded: only a slight increase in luciferase activity
- Luciferase activity (% of Solvent control) ([3]; culture 16 hours, FIG. 6): high luciferase activity
- Luciferase activity (% of Solvent control) ([10]; contact for 8 hours, FIG. 5): only a slight increase in luciferase activity
- Luciferase activity (% of Solvent control) ([11]; contact for 8 hours, FIG. 5): only a slight increase in luciferase activity
- Luciferase activity (% of Solvent control) ([12]; contact for 8 hours, FIG. 5): only a slight increase in luciferase activity
- Luciferase activity (% of Solvent control) ([13]; contact for 8 hours, FIG. 5): only a slight increase in luciferase activity
- Luciferase activity (% of Solvent control) ([14]; contact for 8 hours, FIG. 5): only a slight increase in luciferase activity
- Luciferase activity (% of Solvent control) ([15]; contact for 8 hours, FIG. 5): only a slight increase in luciferase activity
- Luciferase activity (% of Solvent control), time-dependent change ([16]; 0.2 μg/mL, 2, 4, 6 and 8 hours, FIG. 9): an increase in luciferase activity due to an increase in concentration of adriamycin
- Luciferase activity (% of Solvent control) ([16]; 0.003-0.7 μg/mL, 6 hours, FIG. 10): an increase in luciferase activity due to an increase in concentration of adriamycin

Source: US20140308675A1, “MUTAGENICITY TEST METHOD USING MAMMALIAN CELLS” (NISSIN FOODS HOLDINGS CO., LTD., priority 2011, published 2014)
